Laboratory results: ChEMBL document CHEMBL4308865, “Discovery of 4-alkoxy-6-methylpicolinamide negative allosteric modulators of metabotropic glutamate receptor subtype 5” (Bioorg Med Chem Lett, 2019)

Experiments:
[1] = biological target: T1, Metabotropic glutamate receptor 5 (Homo sapiens, UniProt P41594); assay: Negative allosteric modulation of human mGlu5 receptor assessed as inhibition of glutamate induced-calcium mobilization relative to glutamate; type: functional
Target sequence in this assay (P41594 21-1212 limits assumed): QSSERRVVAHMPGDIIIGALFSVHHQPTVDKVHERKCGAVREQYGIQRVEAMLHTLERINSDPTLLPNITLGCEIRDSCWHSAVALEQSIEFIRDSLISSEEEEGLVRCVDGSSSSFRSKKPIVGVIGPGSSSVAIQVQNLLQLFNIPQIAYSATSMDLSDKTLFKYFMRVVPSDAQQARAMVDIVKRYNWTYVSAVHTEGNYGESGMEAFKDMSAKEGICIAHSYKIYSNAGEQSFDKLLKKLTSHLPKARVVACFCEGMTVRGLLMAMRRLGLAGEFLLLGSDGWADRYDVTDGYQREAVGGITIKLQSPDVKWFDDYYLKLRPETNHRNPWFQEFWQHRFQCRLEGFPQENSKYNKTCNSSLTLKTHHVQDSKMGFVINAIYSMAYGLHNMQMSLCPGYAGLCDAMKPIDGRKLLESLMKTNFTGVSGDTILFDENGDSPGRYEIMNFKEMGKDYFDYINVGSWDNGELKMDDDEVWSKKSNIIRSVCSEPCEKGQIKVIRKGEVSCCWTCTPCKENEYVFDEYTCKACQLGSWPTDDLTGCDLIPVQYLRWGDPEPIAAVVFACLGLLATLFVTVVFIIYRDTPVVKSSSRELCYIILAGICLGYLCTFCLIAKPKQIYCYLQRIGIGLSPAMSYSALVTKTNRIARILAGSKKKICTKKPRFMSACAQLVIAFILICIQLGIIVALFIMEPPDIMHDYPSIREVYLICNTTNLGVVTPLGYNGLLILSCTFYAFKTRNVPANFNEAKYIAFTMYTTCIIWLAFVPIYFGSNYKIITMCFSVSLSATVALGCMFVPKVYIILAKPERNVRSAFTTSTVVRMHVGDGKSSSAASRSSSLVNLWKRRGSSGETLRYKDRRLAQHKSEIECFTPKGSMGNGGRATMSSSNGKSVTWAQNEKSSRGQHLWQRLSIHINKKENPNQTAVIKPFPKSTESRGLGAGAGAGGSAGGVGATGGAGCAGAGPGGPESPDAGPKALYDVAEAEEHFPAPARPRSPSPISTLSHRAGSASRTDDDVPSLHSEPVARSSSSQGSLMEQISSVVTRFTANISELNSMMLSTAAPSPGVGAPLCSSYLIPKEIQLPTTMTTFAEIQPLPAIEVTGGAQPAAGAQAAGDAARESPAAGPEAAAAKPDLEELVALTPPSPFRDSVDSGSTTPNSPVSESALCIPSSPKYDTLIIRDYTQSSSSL

[2] = biological target: T1, Metabotropic glutamate receptor 5; assay: Negative allosteric modulation of human mGlu5 receptor assessed as inhibition of glutamate induced-calcium mobilization; type: functional
Target sequence in this assay (P41594 whole entry): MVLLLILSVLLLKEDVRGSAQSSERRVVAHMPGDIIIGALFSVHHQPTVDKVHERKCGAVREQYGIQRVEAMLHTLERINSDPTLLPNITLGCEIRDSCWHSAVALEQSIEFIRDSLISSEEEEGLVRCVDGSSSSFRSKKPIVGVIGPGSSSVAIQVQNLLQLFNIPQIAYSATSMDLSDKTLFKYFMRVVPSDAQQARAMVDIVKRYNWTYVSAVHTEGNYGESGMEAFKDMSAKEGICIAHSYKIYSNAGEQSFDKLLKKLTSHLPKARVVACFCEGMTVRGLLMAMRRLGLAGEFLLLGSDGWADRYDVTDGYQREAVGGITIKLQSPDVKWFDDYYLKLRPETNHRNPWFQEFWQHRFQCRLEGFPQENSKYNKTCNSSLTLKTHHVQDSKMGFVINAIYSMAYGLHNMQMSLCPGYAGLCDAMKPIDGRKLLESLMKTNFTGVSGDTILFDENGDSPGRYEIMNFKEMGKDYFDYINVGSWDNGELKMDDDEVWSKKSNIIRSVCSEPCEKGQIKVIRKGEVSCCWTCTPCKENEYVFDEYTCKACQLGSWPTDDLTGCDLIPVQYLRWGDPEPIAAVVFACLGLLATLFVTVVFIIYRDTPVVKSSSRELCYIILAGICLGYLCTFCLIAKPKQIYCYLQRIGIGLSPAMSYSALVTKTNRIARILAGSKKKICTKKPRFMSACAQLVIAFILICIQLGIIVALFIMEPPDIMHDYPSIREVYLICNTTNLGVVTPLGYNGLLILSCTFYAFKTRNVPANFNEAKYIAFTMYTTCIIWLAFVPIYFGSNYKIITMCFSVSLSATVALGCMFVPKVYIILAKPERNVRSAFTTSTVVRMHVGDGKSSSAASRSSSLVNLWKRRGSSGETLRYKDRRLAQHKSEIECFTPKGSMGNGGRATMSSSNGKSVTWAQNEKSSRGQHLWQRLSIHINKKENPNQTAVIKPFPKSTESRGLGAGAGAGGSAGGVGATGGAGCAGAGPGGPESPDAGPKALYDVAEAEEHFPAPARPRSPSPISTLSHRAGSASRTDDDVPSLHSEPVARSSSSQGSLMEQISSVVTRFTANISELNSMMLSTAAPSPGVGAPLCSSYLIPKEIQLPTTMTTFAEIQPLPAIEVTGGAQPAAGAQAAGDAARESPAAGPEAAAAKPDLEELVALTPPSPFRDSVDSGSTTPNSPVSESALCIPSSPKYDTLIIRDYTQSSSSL

Cytochrome P450 2D6 = Cytochrome P450 2D6 (Homo sapiens, UniProt P10635); assay: Inhibition of CYP2D6 (unknown origin); type: ADME
Cytochrome P450 2D6, sequence (P10635 whole entry): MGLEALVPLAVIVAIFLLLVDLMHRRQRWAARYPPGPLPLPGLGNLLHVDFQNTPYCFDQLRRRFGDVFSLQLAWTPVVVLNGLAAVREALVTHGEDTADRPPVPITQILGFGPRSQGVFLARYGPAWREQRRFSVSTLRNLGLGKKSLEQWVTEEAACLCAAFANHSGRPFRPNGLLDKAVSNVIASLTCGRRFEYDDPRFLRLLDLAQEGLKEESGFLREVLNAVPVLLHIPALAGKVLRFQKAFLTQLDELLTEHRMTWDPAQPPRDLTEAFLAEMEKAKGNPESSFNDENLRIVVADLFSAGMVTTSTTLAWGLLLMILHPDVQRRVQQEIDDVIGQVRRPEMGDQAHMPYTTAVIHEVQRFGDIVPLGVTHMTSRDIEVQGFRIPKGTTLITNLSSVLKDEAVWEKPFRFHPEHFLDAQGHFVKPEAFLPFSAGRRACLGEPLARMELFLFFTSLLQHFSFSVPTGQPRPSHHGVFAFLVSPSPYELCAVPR

[3] = Half life in rat at 0.2 mg/kg, iv; type: ADME, organism-based; conditions: in vivo
Cytochrome P450 1A2 = biological target: T2, Cytochrome P450 1A2 (Homo sapiens, UniProt P05177); assay: Inhibition of CYP1A2 (unknown origin); type: ADME
T2 sequence (P05177 whole entry): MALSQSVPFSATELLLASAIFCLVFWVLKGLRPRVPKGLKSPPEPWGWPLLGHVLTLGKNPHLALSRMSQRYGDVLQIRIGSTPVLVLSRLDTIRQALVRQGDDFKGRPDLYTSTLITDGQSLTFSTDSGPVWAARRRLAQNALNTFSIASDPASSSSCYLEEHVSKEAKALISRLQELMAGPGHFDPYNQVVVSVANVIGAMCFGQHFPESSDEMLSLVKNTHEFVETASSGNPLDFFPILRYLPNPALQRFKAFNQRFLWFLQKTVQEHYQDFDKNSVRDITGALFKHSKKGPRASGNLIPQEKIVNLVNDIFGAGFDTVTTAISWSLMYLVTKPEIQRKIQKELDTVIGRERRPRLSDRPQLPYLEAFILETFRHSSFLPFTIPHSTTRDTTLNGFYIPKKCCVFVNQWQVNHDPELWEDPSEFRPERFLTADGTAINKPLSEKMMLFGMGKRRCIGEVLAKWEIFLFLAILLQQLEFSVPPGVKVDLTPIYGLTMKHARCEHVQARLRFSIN

[4] = Volume of distribution at steady state in rat at 0.2 mg/kg, iv; type: ADME, organism-based; conditions: in vivo, read-out: Vdss
[5] = Unbound fraction in human plasma; type: ADME, cell-free
Cytochrome P450 2C9 = Cytochrome P450 2C9 (Homo sapiens, UniProt P11712); assay: Inhibition of CYP2C9 (unknown origin); type: ADME
Cytochrome P450 2C9, sequence (P11712 whole entry): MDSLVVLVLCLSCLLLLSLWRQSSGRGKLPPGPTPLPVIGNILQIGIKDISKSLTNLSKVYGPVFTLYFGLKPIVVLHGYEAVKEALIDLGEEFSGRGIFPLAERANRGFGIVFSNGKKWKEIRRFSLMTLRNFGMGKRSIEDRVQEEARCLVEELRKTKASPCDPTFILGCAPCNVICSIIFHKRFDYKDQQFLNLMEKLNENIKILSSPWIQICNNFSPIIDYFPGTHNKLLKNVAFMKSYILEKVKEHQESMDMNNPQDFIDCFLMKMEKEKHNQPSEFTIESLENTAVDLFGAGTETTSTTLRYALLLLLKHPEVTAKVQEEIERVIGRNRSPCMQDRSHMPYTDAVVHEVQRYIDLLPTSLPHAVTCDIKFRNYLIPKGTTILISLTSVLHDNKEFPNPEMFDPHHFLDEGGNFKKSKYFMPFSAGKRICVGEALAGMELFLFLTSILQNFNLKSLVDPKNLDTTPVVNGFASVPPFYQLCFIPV

Cytochrome P450 3A4 = Cytochrome P450 3A4 (Homo sapiens, UniProt P08684); assay: Inhibition of CYP3A4 (unknown origin); type: ADME
Cytochrome P450 3A4, sequence (P08684 whole entry): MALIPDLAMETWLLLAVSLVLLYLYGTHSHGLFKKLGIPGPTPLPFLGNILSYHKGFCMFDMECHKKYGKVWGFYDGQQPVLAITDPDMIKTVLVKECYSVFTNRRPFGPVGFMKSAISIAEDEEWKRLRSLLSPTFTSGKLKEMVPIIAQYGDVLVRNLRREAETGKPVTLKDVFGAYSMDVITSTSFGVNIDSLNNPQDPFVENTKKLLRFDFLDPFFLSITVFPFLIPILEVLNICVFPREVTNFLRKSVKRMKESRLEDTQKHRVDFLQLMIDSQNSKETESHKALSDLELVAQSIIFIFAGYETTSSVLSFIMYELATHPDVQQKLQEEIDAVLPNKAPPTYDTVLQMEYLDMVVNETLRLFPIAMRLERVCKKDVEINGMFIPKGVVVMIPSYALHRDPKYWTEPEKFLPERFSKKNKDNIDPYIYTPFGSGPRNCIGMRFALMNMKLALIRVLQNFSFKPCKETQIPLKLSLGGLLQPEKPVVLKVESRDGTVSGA

[6] = Plasma clearance in rat at 0.2 mg/kg, iv; type: ADME, organism-based
[7] = Unbound fraction in rat plasma; type: ADME, cell-free
[8] = Brain to plasma partition coefficient, Kp in rat; type: ADME, organism-based
[9] = Drug metabolism in dog S9 fraction assessed as NADPH-dependent oxidation of furanyl moiety; type: ADME, subcellular, Canis lupus familiaris
[10] = Drug metabolism in rat S9 fraction assessed as NADPH-dependent oxidation of furanyl moiety; type: ADME, subcellular
[11] = Drug metabolism in human S9 fraction assessed as NADPH-dependent oxidation of furanyl moiety; type: ADME, subcellular

SMILES | Efficacy [1] [%] | IC50 [2] [nM] | further results
COCOc1cc(C)nc(C(=O)Nc2ccc(F)cn2)c1 | 0.1 | 694 | 
Cc1cc(OCC2CCCO2)cc(C(=O)Nc2ccccn2)n1 (stereo unspecified) | 0.8 | 725 | 
Cc1cc(OC2CCOCC2)cc(C(=O)Nc2nc(C)cs2)n1 | 0.7 | 446 | 
Cc1cc(O[C@H]2CCOC2)cc(C(=O)Nc2ccc(F)cn2)n1 | 1 | 657 | 
Cc1cc(OCC2CCO2)cc(C(=O)Nc2nc(C)cs2)n1 (stereo unspecified) | 1.2 | 399 | 
Cc1cc(O[C@H]2CO[C@H](C)C2)cc(C(=O)Nc2ccc(F)cn2)n1 | 1.3 | 175 | 
Cc1cc(OC2CCCCC2)cc(C(=O)Nc2ccc(F)cn2)n1 | 10.4 | 3350 | 
Cc1cc(OC2CCCOC2)cc(C(=O)Nc2nc(C)cs2)n1 (stereo unspecified) | 0.9 | 140 | 
Cc1cc(OC2CCOCC2)cc(C(=O)Nc2ccccn2)n1 | 0.9 | 1560 | 
Cc1cc(O[C@@H]2CO[C@@H](C)C2)cc(C(=O)Nc2nc(C)cs2)n1 | 1.7 | 395 | 
Cc1cc(OCC2CCO2)cc(C(=O)Nc2ccc(F)cn2)n1 (stereo unspecified) | -1.1 | 2480 | 
Cc1cc(O[C@@H]2CCOC2)cc(C(=O)Nc2ccc(F)cn2)n1 | 1.7 | 38 | INH (Cytochrome P450 2D6): > 30 µM; half-life [3]: 46 min; INH (Cytochrome P450 1A2): > 30 µM; Vd [4]: 5.5 L/kg; Fu [5]: 0.07; INH (Cytochrome P450 2C9): > 30 µM; INH (Cytochrome P450 3A4): > 30 µM; clearance [6]: 136 mL/min/kg; Fu [7]: 0.26
Cc1cc(OC2CCCC2)cc(C(=O)Nc2nc(C)cs2)n1 | 1.5 | 149 | 
Cc1cc(O[C@H]2CO[C@@H](C)C2)cc(C(=O)Nc2nc(C)cs2)n1 | 1.1 | 684 | 
COCOc1cc(C)nc(C(=O)Nc2nc(C)cs2)c1 | 1.9 | 103 | 
Cc1cc(OC2CCC2)cc(C(=O)Nc2ccc(F)cn2)n1 | 1.6 | 182 | 
Cc1cc(OC2COC2)cc(C(=O)Nc2ccccn2)n1 | 1.3 | 66 | 
Cc1cc(O[C@@H]2CO[C@@H](C)C2)cc(C(=O)Nc2ccc(F)cn2)n1 | 2.6 | 2040 | 
Cc1cc(OC2CCCOC2)cc(C(=O)Nc2ccc(F)cn2)n1 (stereo unspecified) | 0.2 | 497 | 
Cc1cc(OCC2CCOC2)cc(C(=O)Nc2ccc(F)cn2)n1 (stereo unspecified) | 1 | 700 | 
Cc1cc(O[C@@H]2CO[C@H](C)C2)cc(C(=O)Nc2nc(C)cs2)n1 | 2.1 | 112 | 

SMILES | Efficacy [1] [%] | IC50 [2] [nM] | further results
CO[C@@H](C)COc1cc(C)nc(C(=O)Nc2nc(C)cs2)c1 |  | 1050 | 
Cc1cc(OCC2COC2)cc(C(=O)Nc2ccccn2)n1 | 0.8 | 392 | 
Cc1cc(OC2C[S+]([O-])C2)cc(C(=O)Nc2nc(C)cs2)n1 (stereo unspecified) |  | 145 | 
Cc1cc(OC2CCCC2)cc(C(=O)Nc2ccccn2)n1 | 2.1 | 182 | 
Cc1cc(O[C@H]2CO[C@@H](C)C2)cc(C(=O)Nc2ccc(F)cn2)n1 | 1.9 | 4470 | 
Cc1cc(O[C@H]2CCOC2)cc(C(=O)Nc2nc(C)cs2)n1 | 1.4 | 107 | 
Cc1cc(O[C@H]2CO[C@H](C)C2)cc(C(=O)Nc2nc(C3CC3)cs2)n1 | 1.3 | 899 | 
Cc1cc(OCC2COC2)cc(C(=O)Nc2nc(C)cs2)n1 | 1.5 | 134 | 
Cc1cc(OCC2CCO2)cc(C(=O)Nc2ccccn2)n1 (stereo unspecified) | 0.5 | 646 | 
Cc1cc(OC2CCCC2)cc(C(=O)Nc2ccc(F)cn2)n1 | -0.7 | 3660 | 
Cc1cc(OC2COC2)cc(C(=O)Nc2ccc(F)cn2)n1 | 1.1 | 228 | INH (Cytochrome P450 2D6): > 30 µM; half-life [3]: 28 min; INH (Cytochrome P450 1A2): 5.8 µM; Vd [4]: 4.5 L/kg; Fu [5]: 0.16; INH (Cytochrome P450 2C9): > 30 µM; INH (Cytochrome P450 3A4): > 30 µM; clearance [6]: 179 mL/min/kg; Fu [7]: 0.16
Cc1cc(O[C@H]2CCOC2)cc(C(=O)Nc2ccccn2)n1 | 1.3 | 194 | 
Cc1cc(OCC2CCOC2)cc(C(=O)Nc2nc(C)cs2)n1 (stereo unspecified) | 1.1 | 200 | 
Cc1cc(O[C@H]2CO[C@H](C)C2)cc(C(=O)Nc2nc(C(F)(F)F)cs2)n1 | 2.7 | 5200 | 
Cc1cc(O[C@H]2CO[C@H](C)C2)cc(C(=O)Nc2nc(C)cs2)n1 | 1.2 | 81 | Kp [8]: 2.2; fraction unbound [5]: 0.05; fraction unbound [7]: 0.1
COc1cc(C)nc(C(=O)Nc2ccc(F)cn2)c1 | 5.5 | 7200 | 
Cc1cc(OC2CCOCC2)cc(C(=O)Nc2ccc(F)cn2)n1 | -0.2 | 1960 | 
Cc1cc(O[C@@H]2CO[C@H](C)C2)cc(C(=O)Nc2ccc(F)cn2)n1 | 1.4 | 389 | 
Cc1cc(O[C@@H]2CCOC2)cc(C(=O)Nc2ccccn2)n1 | 1.7 | 23 | 
Cc1cc(OC2CCSC2)cc(C(=O)Nc2nc(C)cs2)n1 (stereo unspecified) |  | 77 | 
Cc1cc(O[C@@H]2CCOC2)cc(C(=O)Nc2nc(C)cs2)n1 | 1.3 | 28 | INH (Cytochrome P450 2D6): > 30 µM; half-life [3]: 63 min; INH (Cytochrome P450 1A2): 0.3 µM; Vd [4]: 2.7 L/kg; Fu [5]: 0.08; INH (Cytochrome P450 2C9): > 30 µM; INH (Cytochrome P450 3A4): 30 µM; Drug metabolism [9]: Metabolite_Detected; Drug metabolism [10]: Metabolite_Detected; clearance [6]: 34 mL/min/kg; Drug metabolism [11]: Metabolite_Detected; fraction unbound [7]: 0.11

SMILES | Efficacy [1] [%] | IC50 [2] [nM] | further results
Cc1cc(OCC2COC2)cc(C(=O)Nc2ccc(F)cn2)n1 | -3.4 | 4300 | 
CC(=O)N1CC(Oc2cc(C)nc(C(=O)Nc3nc(C)cs3)c2)C1 |  | 388 | 
COCOc1cc(C)nc(C(=O)Nc2ccccn2)c1 | 1.1 | 120 | 
Cc1cc(OC2CCCCC2)cc(C(=O)Nc2ccccn2)n1 | 2.1 | 1420 | 
CO[C@H](C)COc1cc(C)nc(C(=O)Nc2nc(C)cs2)c1 |  | 145 | Fu [5]: 0.07; Fu [7]: 0.09
Cc1cc(OC2CCCOC2)cc(C(=O)Nc2ccccn2)n1 (stereo unspecified) | 0.7 | 224 | 
COC[C@H](C)Oc1cc(C)nc(C(=O)Nc2nc(C)cs2)c1 |  | 932 | 
Cc1cc(OC2CCCCC2)cc(C(=O)Nc2nc(C)cs2)n1 | 1.9 | 2100 | 
Cc1cc(O[C@H]2CO[C@H](C)C2)cc(C(=O)Nc2nc(CF)cs2)n1 | 1.1 | 180 | 
Cc1cc(OC2CS(=O)(=O)C2)cc(C(=O)Nc2nc(C)cs2)n1 |  | 392 | 
Cc1cc(OCC2CCOC2)cc(C(=O)Nc2ccccn2)n1 (stereo unspecified) | 1.1 | 210 | 
Cc1cc(OC2CSC2)cc(C(=O)Nc2nc(C)cs2)n1 |  | 31 | 
Cc1cc(OC2CN(S(C)(=O)=O)C2)cc(C(=O)Nc2nc(C)cs2)n1 |  | 504 | 
Cc1cc(O[C@H]2CO[C@H](C)C2)cc(C(=O)Nc2nc(C)c(F)s2)n1 | 3.8 | 1290 | 
Cc1cc(OCC2CCCO2)cc(C(=O)Nc2ccc(F)cn2)n1 (stereo unspecified) | -0.9 | 2330 | 
Cc1cc(OC2CCC2)cc(C(=O)Nc2nc(C)cs2)n1 | 1.5 | 58 | 
Cc1cc(O[C@H]2CO[C@H](C)C2)cc(C(=O)Nc2nc(C(F)F)cs2)n1 | 1.6 | 902 | 
Cc1cc(OCC2CCCO2)cc(C(=O)Nc2nc(C)cs2)n1 (stereo unspecified) | 1.5 | 273 | 
Cc1cc(OC2COC2)cc(C(=O)Nc2nc(C)cs2)n1 | 0.5 | 51 | 
COC[C@@H](C)Oc1cc(C)nc(C(=O)Nc2nc(C)cs2)c1 |  | 1030 | 
Cc1cc(OC2CCC2)cc(C(=O)Nc2ccccn2)n1 | 1.5 | 43 | 
